Source: paper PMC9851200, “Multiparameter phenotypic screening for endogenous TFEB and TFE3 translocation identifies novel chemical series modulating lysosome function” (Autophagy, 2022)
Read-outs that look alike come from different tables or passages of the source.

Tests used:
Test in all cases: biochemical
Type in all cases: binding
[1] = molecular target: cellular kinases of SH-SY5Y cells (Homo sapiens, UniProt Q13163); details: 2µM; SH-SY5Y cells; Labeling Site Lys2; DVKPSNMLVNTR; read-out: KiNativ in-cell binding, % Inhibition, MAP2K5
Text: (§1) As KINOMEscan is an in vitro assay, and as different cell types have variable kinase expression profiles we sought to determine the kinase binding profile in our SH-SY5Y TFEB-relocalization cell model. […] Bound kinases were pulled down and analyzed by mass spectrometry to determine the in situ kinase binding profile for each compound.

[2] = molecular target: cellular kinases of SH-SY5Y cells (Homo sapiens, UniProt Q15349); details: 2µM; SH-SY5Y cells; labeling site Lys2; peptide DLKPENILLDEEGHIKITDFGLSK
Text: as §1

[3] = molecular target: cellular kinases of SH-SY5Y cells (Homo sapiens, UniProt Q16512); details: 2µM; SH-SY5Y cells; Labeling Site Lys1; VLLSEFRPSGELFAIKALK; read-out: KiNativ in-cell binding, % Inhibition, PKN1
Text: as §1

[4] = molecular target: T1, cellular kinases of SH-SY5Y cells (Homo sapiens, UniProt Q9Y572); details: 2µM; SH-SY5Y cells; Labeling Site Lys2; DLKPSNVLLDPELHVK; read-out: KiNativ in-cell binding, % Inhibition, RIPK3
T1 construct: endogenous in cells; host or cells: SH-SY5Y
Text: as §1

[5] = molecular target: T2, cellular kinases of SH-SY5Y cells (Homo sapiens, UniProt Q14164); details: 2µM; SH-SY5Y cells; Labeling Site Lys1; SGELVAVKVFNTTSYLRPR; read-out: KiNativ in-cell binding, % Inhibition, IKBKE/IKKe
T2 construct: endogenous in cells; host or cells: SH-SY5Y
Text: as §1

[6] = molecular target: T3, cellular kinases of SH-SY5Y cells (Homo sapiens, UniProt P23743)
T3 construct: endogenous in cells; host or cells: SH-SY5Y
Text: as §1

[7] = tested on: cellular kinases of SH-SY5Y cells
Text: as §1

[8] = molecular target: T4, cellular kinases of SH-SY5Y cells (Homo sapiens, UniProt Q13233); details: 2µM; SH-SY5Y cells; Labeling Site Lys2; DVKGANLLIDSTGQR; read-out: KiNativ in-cell binding, % Inhibition, MAP3K1
T4 construct: endogenous in cells; host or cells: SH-SY5Y
Text: as §1

[9] = molecular target: T5, cellular kinases of SH-SY5Y cells (Homo sapiens, UniProt P43403); details: 2µM; SH-SY5Y cells; Labeling Site Activation Loop; SAGKWPLK; read-out: KiNativ in-cell binding, % Inhibition, ZAP70
T5 construct: endogenous in cells; host or cells: SH-SY5Y
Text: as §1

[10] = molecular target: cellular kinases of SH-SY5Y cells (Homo sapiens, UniProt P04049); details: 2µM; SH-SY5Y cells; Labeling Site Lys2; DMKSNNIFLHEGLTVK; read-out: KiNativ in-cell binding, % Inhibition, RAF1
Text: as §1

[11] = molecular target: T6, cellular kinases of SH-SY5Y cells (Homo sapiens, UniProt O75385); details: 2µM; SH-SY5Y cells; Labeling Site Lys2; DLKPQNILLSNPAGR; read-out: KiNativ in-cell binding, % Inhibition, ULK1
T6 construct: endogenous in cells; host or cells: SH-SY5Y
Text: as §1

[12] = molecular target: cellular kinases of SH-SY5Y cells (Homo sapiens, UniProt Q96Q15); details: 2µM, SH-SY5Y cells, Labeling Site ATP, read-out: KiNativ in-cell binding, % Inhibition, SMG1
Chain of cellular kinases of SH-SY5Y cells (Homo sapiens, UniProt Q96Q15) (Q96Q15 whole entry): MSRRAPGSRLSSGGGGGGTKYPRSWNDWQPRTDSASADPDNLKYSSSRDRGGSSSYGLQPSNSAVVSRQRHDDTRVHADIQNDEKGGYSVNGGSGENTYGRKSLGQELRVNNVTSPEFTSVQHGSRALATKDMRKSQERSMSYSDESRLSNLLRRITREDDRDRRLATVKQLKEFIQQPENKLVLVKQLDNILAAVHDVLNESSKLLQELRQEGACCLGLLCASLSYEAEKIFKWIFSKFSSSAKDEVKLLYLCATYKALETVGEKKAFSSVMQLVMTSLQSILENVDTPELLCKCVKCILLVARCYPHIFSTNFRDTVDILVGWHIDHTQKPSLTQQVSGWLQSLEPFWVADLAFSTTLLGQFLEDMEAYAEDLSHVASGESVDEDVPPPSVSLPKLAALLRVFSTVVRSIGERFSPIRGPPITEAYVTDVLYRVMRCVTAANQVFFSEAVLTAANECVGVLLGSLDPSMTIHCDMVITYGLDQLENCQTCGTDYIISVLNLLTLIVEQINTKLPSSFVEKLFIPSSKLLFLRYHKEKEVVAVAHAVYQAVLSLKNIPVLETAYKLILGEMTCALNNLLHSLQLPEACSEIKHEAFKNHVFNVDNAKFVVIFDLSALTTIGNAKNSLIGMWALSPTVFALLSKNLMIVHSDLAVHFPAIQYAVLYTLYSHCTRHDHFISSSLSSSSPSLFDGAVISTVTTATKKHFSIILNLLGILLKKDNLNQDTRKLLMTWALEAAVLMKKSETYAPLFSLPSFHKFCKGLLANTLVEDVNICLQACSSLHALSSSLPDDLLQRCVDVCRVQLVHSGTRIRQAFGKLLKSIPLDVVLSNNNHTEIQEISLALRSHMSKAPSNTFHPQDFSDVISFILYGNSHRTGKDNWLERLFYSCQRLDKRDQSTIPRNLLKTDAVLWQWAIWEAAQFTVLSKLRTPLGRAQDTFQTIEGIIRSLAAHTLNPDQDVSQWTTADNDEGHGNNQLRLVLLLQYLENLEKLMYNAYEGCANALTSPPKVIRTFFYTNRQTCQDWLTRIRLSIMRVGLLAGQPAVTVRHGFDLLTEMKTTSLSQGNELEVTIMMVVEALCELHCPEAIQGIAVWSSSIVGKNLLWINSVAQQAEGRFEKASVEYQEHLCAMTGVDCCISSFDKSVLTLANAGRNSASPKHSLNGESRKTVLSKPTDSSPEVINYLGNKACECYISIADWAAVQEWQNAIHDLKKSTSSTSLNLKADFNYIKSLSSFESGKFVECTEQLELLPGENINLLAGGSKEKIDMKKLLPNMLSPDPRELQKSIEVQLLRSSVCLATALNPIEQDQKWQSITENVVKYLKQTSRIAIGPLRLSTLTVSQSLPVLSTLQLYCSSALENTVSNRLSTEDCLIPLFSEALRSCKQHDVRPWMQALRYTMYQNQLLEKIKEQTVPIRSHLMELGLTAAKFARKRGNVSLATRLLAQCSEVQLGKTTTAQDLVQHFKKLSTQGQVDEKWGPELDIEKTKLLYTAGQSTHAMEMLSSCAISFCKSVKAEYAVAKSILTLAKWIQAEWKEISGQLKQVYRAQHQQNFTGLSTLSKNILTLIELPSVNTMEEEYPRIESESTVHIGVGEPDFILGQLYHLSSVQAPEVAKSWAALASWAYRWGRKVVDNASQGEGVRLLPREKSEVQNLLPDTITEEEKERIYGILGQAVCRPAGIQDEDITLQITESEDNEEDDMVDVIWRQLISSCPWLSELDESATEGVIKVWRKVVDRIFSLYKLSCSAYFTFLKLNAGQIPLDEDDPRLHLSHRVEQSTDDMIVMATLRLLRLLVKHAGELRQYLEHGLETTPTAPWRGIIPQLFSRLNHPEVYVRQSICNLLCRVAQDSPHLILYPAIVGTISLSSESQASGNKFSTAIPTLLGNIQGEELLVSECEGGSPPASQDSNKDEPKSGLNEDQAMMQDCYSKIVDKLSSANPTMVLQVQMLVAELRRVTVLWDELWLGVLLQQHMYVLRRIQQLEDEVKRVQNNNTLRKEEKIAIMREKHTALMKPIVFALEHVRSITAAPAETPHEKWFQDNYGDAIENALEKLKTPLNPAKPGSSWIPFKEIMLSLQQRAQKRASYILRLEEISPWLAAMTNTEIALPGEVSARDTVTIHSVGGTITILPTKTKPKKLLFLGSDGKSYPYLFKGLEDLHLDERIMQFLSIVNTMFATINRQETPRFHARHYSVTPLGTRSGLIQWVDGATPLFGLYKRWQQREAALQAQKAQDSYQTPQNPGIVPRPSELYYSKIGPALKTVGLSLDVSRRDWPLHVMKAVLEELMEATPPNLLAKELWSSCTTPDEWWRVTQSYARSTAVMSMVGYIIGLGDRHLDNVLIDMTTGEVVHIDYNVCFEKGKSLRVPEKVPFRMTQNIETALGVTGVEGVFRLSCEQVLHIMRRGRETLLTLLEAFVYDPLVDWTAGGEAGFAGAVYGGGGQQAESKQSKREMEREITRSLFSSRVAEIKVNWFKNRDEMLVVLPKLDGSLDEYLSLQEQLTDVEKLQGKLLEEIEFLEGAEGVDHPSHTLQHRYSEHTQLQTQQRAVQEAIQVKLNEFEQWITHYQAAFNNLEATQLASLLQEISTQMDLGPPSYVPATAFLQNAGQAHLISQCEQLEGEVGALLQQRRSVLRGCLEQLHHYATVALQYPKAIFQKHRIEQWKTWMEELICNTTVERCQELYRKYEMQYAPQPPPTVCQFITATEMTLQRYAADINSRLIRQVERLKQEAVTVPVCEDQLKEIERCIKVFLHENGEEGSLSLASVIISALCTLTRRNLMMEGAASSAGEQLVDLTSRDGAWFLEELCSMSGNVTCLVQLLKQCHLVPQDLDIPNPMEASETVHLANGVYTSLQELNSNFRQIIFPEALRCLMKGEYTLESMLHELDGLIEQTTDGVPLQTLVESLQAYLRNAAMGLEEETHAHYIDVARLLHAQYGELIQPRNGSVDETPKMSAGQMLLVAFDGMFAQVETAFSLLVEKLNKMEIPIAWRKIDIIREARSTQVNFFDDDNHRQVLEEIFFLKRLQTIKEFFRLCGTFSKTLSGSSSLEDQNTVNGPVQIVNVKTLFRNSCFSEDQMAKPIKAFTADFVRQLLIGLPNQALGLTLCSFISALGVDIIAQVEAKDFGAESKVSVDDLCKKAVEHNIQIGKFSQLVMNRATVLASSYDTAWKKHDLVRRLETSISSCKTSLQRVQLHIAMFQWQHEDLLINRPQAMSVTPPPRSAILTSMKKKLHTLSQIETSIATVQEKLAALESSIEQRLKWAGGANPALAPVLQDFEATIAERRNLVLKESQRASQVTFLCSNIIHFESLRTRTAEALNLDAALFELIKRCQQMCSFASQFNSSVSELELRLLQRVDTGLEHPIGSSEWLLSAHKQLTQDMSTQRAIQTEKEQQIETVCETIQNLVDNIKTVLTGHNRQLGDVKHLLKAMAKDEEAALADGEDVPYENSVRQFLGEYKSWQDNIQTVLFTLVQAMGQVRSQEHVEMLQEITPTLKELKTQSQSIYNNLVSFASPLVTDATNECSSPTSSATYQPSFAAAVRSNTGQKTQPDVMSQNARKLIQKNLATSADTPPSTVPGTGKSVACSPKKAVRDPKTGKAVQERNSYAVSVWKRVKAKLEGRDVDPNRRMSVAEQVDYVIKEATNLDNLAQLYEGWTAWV
Text: as §1

[13] = molecular target: cellular kinases of SH-SY5Y cells (Homo sapiens, UniProt Q13043); details: 2µM; SH-SY5Y cells; Labeling Site Lys1; ETGQIVAIKQVPVESDLQEIIK; read-out: KiNativ in-cell binding, % Inhibition, STK4/MST1
Text: as §1

[14] = molecular target: cellular kinases of SH-SY5Y cells (Homo sapiens, UniProt Q99759); details: 2µM; SH-SY5Y cells; Labeling Site Lys1; ELASKQVQFDPDSPETSKEVSALECEIQLLK; read-out: KiNativ in-cell binding, % Inhibition, MAP3K3
Text: as §1

[15] = molecular target: T7, cellular kinases of SH-SY5Y cells (Homo sapiens, UniProt Q9NRH2); details: 2µM, SH-SY5Y cells, read-out: KiNativ in-cell binding, % Inhibition, SNRK
T7 construct: endogenous in cells; host or cells: SH-SY5Y
T7 sequence (Q9NRH2 whole entry): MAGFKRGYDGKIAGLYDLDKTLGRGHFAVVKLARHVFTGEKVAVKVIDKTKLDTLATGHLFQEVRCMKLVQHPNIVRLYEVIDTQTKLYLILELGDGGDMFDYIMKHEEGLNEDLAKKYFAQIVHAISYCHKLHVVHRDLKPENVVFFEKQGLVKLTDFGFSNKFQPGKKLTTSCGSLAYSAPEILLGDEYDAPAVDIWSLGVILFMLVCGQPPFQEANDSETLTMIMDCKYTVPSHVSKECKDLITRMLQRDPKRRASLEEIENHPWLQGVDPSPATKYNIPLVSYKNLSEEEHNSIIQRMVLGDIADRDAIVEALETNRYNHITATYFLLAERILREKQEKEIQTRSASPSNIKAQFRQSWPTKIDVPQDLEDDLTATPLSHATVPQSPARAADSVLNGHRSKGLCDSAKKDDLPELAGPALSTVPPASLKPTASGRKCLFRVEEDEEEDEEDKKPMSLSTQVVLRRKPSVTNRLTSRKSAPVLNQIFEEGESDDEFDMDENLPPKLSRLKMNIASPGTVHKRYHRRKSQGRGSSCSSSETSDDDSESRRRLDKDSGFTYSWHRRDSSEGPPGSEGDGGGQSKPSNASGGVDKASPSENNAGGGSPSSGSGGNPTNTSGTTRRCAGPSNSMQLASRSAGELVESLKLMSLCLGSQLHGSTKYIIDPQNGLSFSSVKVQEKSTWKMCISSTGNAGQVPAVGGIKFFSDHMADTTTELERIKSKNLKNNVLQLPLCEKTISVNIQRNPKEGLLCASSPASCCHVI
Text: as §1

[16] = molecular target: T8, cellular kinases of SH-SY5Y cells (Homo sapiens, UniProt Q86SG6); details: 2µM; SH-SY5Y cells; Labeling Site Lys2; DLKTQNILLDK; read-out: KiNativ in-cell binding, % Inhibition, NEK9/NEK8
T8 construct: endogenous in cells; host or cells: SH-SY5Y
Text: as §1

[17] = molecular target: cellular kinases of SH-SY5Y cells (Homo sapiens, UniProt P27448); details: 2µM; SH-SY5Y cells; Labeling Site Lys1; EVAIKIIDKTQLNPTSLQK; read-out: KiNativ in-cell binding, % Inhibition, MARK3
Chain of cellular kinases of SH-SY5Y cells (Homo sapiens, UniProt P27448) (P27448 whole entry): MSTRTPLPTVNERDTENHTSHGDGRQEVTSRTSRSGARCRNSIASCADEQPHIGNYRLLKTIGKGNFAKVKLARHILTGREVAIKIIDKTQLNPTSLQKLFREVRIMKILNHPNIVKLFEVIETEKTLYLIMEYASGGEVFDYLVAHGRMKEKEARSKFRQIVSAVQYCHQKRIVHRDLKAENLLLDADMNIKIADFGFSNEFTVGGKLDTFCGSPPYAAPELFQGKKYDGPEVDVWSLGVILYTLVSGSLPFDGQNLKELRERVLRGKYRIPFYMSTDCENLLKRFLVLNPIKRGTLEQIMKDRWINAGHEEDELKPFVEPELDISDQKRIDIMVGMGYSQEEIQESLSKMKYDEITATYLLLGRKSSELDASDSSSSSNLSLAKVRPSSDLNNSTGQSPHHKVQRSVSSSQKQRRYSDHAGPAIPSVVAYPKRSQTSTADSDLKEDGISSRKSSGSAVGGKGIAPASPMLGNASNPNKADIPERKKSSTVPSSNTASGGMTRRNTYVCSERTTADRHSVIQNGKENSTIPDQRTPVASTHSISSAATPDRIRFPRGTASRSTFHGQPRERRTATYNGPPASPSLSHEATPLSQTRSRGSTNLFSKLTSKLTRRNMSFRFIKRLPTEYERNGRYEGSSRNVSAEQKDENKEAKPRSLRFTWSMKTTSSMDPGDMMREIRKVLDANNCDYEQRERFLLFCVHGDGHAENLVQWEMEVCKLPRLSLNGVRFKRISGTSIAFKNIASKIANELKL
Text: as §1

[18] = molecular target: T9, cellular kinases of SH-SY5Y cells (Homo sapiens, UniProt Q9NYL2); details: 2µM; SH-SY5Y cells; Labeling Site Lys1; WISQDKEVAVKK; read-out: KiNativ in-cell binding, % Inhibition, MAP3K20/ZAK
T9 construct: endogenous in cells; host or cells: SH-SY5Y
Text: as §1

Cc1cccc(-c2nc(Nc3ccc4ncsc4c3)c3ccccc3n2)n1 [NK140]
inhibition at 2 µM [1]: -14.7%
KiNativ in-cell binding, RSK3 domain1 [2]: -68.0
inhibition at 2 µM [3]: 3%
inhibition at 2 µM [4]: 26.1%
inhibition at 2 µM [5]: 34.5%
KiNativ in-cell binding, DGKA [6]: -19.6
KiNativ in-cell binding, % Inhibition, CaMK2a, CaMK2b, CaMK2d, CaMK2g [7]: 16.4%
KiNativ in-cell binding, AKT1, AKT3 [7]: -0.000814
KiNativ in-cell binding, % Inhibition, AKT1, AKT3 ([7]; 2 µM): 34.2%
KiNativ in-cell binding, % Inhibition, STK17A/DRAK1, STK17B/DRAK2 ([7]; 2µM, SH-SY5Y cells, Labeling Site ATP Loop, GKFAVVR): -4.6%
KiNativ in-cell binding, % Inhibition, AURKA/AurA, AURKB/AurB, AURKC/AurC ([7]; 2µM, SH-SY5Y cells, Labeling Site ATP Loop, GKFGNVYLAR): 24.2%
KiNativ in-cell binding, % Inhibition, CSNK1G1, CSNK1G2, CSNK1G3 ([7]; 2µM, SH-SY5Y cells, Labeling Site ATP Loop, KIGCGNFGELR): 8.1%
KiNativ in-cell binding, % Inhibition, Wnk1, Wnk2, Wnk4 ([7]; 2µM, SH-SY5Y cells, Labeling Site Activation Loop, IGDLGLATLKR): 6.9%
KiNativ in-cell binding, % Inhibition, MERTK/MER, TYRO3 ([7]; 2µM, SH-SY5Y cells, Labeling Site Activation Loop, KIYSGDYYR): -4.5%
KiNativ in-cell binding, % Inhibition, KSR1, KSR2 ([7]; 2µM, SH-SY5Y cells, Labeling Site Activation Loop, SKNVFYDNGK): 5.1%
KiNativ in-cell binding, % Inhibition, MARK3, MARK4 ([7]; 2µM, SH-SY5Y cells, Labeling Site Lys1, EVAIKIIDK): 2.7%
KiNativ in-cell binding, % Inhibition, MARK1, MARK2 ([7]; 2µM, SH-SY5Y cells, Labeling Site Lys1, EVAVKIIDK): 1.8%
KiNativ in-cell binding, % Inhibition, TAOK1, TAOK3 ([7]; 2µM, SH-SY5Y cells, Labeling Site Lys2, DIKAGNILLTEPGQVK): 26.0%
KiNativ in-cell binding, % Inhibition, MAP3K2, MAP3K3 ([7]; 2µM, SH-SY5Y cells, Labeling Site Lys2, DIKGANILR): 28.5%
KiNativ in-cell binding, % Inhibition, NEK6, NEK7 ([7]; 2µM, SH-SY5Y cells, Labeling Site Lys2, DIKPANVFITATGVVK): -7.5%
KiNativ in-cell binding, % Inhibition, MARK2, MARK3 ([7]; 2µM, SH-SY5Y cells, Labeling Site Lys2, DLKAENLLLDADMNIK): -28.6%
KiNativ in-cell binding, % Inhibition, Wnk1, Wnk2, Wnk3 ([7]; 2µM, SH-SY5Y cells, Labeling Site Lys2, DLKCDNIFITGPTGSVK): 6.4%
KiNativ in-cell binding, % Inhibition, PRKCA/PKCa, PRKCB/PKCb ([7]; 2µM, SH-SY5Y cells, Labeling Site Lys2, DLKLDNVMLDSEGHIK): -2.4%
KiNativ in-cell binding, % Inhibition, CSNK1D, CSNK1E ([7]; 2µM, SH-SY5Y cells, Labeling Site Lys2, DVKPDNFLMGLGKK): 19.5%
KiNativ in-cell binding, % Inhibition, ROCK1, ROCK2 ([7]; 2µM, SH-SY5Y cells, Labeling Site Lys2, DVKPDNMLLDK): -44.8%
KiNativ in-cell binding, % Inhibition, MAPKAPK2, MAPKAPK3 ([7]; 2µM, SH-SY5Y cells, Labeling Site Lys2, DVKPENLLYTSK): 16.8%
KiNativ in-cell binding, % Inhibition, PRKCA/PKCa, PRKCG/PKCg ([7]; 2µM, SH-SY5Y cells, Labeling Site Other, NLIPMDPNGLSDPYVKLK): -18.8%
KiNativ in-cell binding, % Inhibition, PI4KA, PI4KAP2 ([7]; 2µM, SH-SY5Y cells, Labeling Site Unassigned, SGTPMQSAAKAPYLAK): 1.2%
KiNativ in-cell binding, IKKe, TBK1 ([7]; 2µM, SH-SY5Y cells, labeling site Lys2, peptide DIKPGNIMR): -85.5
KiNativ in-cell binding, MYO3A, MYO3B ([7]; 2µM, SH-SY5Y cells, labeling site Lys2, peptide DVKGNNILLTTEGGVK): 0.9
KiNativ in-cell binding, MAP2K1, MAP2K2 ([7]; 2µM, SH-SY5Y cells, labeling site Lys2, peptide DVKPSNILVNSR): -3.2
inhibition at 2 µM [8]: -7.7%
inhibition at 2 µM [9]: -3%
inhibition at 2 µM [10]: 32.5%
inhibition at 2 µM [11]: -13.4%
inhibition at 2 µM ([12]; DTVTIHSVGGTITILPTKTKPK): 11.2%
inhibition at 2 µM ([12]; SYPYLFKGLEDLHLDER): 43.7%
inhibition at 2 µM [13]: 39%
inhibition at 2 µM [14]: 12.5%
inhibition at 2 µM ([15]; Labeling Site Lys1, VAVKVIDK): 37.3%
inhibition at 2 µM ([15]; Labeling Site Lys2, DLKPENVVFFEK): 36.3%
inhibition at 2 µM [16]: 15.8%
inhibition at 2 µM [17]: 18.5%
inhibition at 2 µM [18]: -2%
